Converted amounts (≈) assume the structure as drawn. Read-outs that look alike come from different tables or passages of the source.
How the values were obtained:
[1] = test system: Staphylococcus aureus ATCC 6583P; assay: Minimum inhibitory concentration, agar dilution method, SA; format: cell-based; conditions: ATCC6583P
Source text: (§1) Certain Compounds I were selected. Table 3 indicates their anti-bacterial activities in terms of their minimum inhibitory concentration (μg/ml), determined by the agar dilution method effected at a pH of 7.0. In this table, the microorganisms used are abbreviated as follows:
SA: Staphylococcus aureus ATCC 6583P

[2] = Acute toxicity; format: in vivo, mice (ddy); conditions: mouse, in vivo, ip; for LD50 at 336 h: ddy mice, single i.p., 14 days, Behren Korber's method; for selectivity ratio: read-out: (C.I.)* = (LD50/ED50)/[(LD50/ED50) of MMC1]
Description: (§2) Certain compounds were selected from Compounds I. The following Table 4 indicates anti-tumour activity against Sarcoma 180 solid tumour (ED50), acute toxicity (LD50) and effects on the peripheral leucocytes (WBC4000) of each compound.
Each animal of the test group consisting of 5 ddy mice was once administered (i.p.) with a test compound. […] The LD50 was determined by Behren Korber's method.

[3] = test system: Klebsiella pneumoniae ATCC 10031; assay: microbe, parasite or virus in culture; format: cell-based; conditions: ATCC10031, pH 7, read-out: minimum inhibitory concentration, KP
Source text: Certain Compounds I were selected. […] In this table, the microorganisms used are abbreviated as follows:
KP: Klebsiella pneumoniae ATCC 10031

[4] = test system: Proteus vulgaris ATCC 6897; assay: Minimum inhibitory concentration, agar dilution method, PV; format: cell-based
Source text: as §1
PV: Proteus vulgaris ATCC 6897

[5] = in vivo; format: in vivo, mice (ddy strain); conditions: mouse, in vivo, ip; read-out: (WBC4000/ED50)* = (WBC4000/ED50)/[(WBC4000/ED50) of MMC1]
Description: as §2
(4) Effect upon the number of the peripheral leucocytes:
Sarcoma 180 solid tumour cells (5×10^6) were subcutaneously implanted into the right armpit of each mouse (body weight 20±2 g) of a group consisting of 5 male mice (ddy strain). 24 hours after implantation,a test compound was abdominally administered to each mouse. 4 days later, blood (each 0.02 ml) was collected from the suborbital plexus vein of each tumour-carrying mouse. The collected sample of blood was dispersed in 9.98 ml of Cell-kit Seven solution. One drop of saponin solution was added to the sample to dissolve erythrocytes and then a microcell counter was used to measure the number of leucocytes. On graph paper, the number of leucocytes was indicated on the y-axis by an arithmetic scale and the does of the test compound was indicated on the x-axis by a logarithmic scale.
The relationship between the number of peripheral leucocytes and the dosage of the test compound was plotted to obtain WBC4000 viz. the dosage corresponding to […] per mm^3 (about half of the number of leucocytes of normal mice).

[6] = test system: Streptococcus faecalis ATCC 10541; assay: Minimum inhibitory concentration, agar dilution method, SF; format: cell-based; conditions: Enterococcus faecalis
Source text: as §1
SF: Streptococcus faecalis ATCC 10541

[7] = test system: P388 Leukemia; assay: Effect upon Leukemia P 388; format: in vivo, mouse (CDF1); conditions: single i.p., 33 days
Description: (5) Effect upon Leukemia P 388:
Ascites cells were collected from P388 Leukemia-carrying mouse (DBA/2) 7 days after the implantation. The number of the cells of P388 Leukemia in the sample was counted. A physiological solution of sodium chloride was sterilized and used to prepare a cell suspension containing 5×10^6 tumour cells per ml. On each occasion, 0.2 ml of the suspension containing 1×10^6 cells was implanted into the abdominal cavity of each mouse (CDF1; body weight 20~25 g). 24 hours after implantation, the test compound was once given to each mouse of a test group consisting of 6 mice by abdominal injection.
The activity of the test samples was determined by the ratio of the average survival days of the treated animals to the average survival days of untreated animals viz. ILS % (Increased Life Span).

[8] = Solubility in water; format: physicochemical; conditions: water
[9] = test system: Sarcoma 180 solid tumour; assay: animal or person; format: in vivo, mice (ddy strain); conditions: Mus musculus, Sarcoma-180, ip, 168 h, read-out: ED50 ip
Source text: as §2
(1) Effect against Sarcoma 180 solid tumour:
5×10^6 cells of Sarcoma 180 solid tumour cells were abdominally implanted into male mice of ddy strain. 7 days after this, ascites cells were sampled. The cells were washed once with a sterilized physiological solution of sodium chloride and were used to prepare a cell suspension containing 5×10^7 cells per ml. On each occasion, 0.1 ml of the cell suspension was subcutaneously implanted into the right armpit of a male mouse (ddy strain; body weight 20±2 g). 24 hours after the implantation of the tumour cells, the test compound which was dissolved in a physiological solution of sodium chloride with or without addition of Tween 80 was abdominally administered to each mouse of a group consisting of 5 animals at a does of 0.1-0.2 ml. The anti-tumour activity was determined as follows:
7 days after the implantation, the major axis (a) and the minor axis (b) of the tumour were measured to calculate a value of "a×b^2 /2" which corresponds to the volume of the tumour. The anti-tumour activity was expressed by T/C viz. the ratio of the volume of the tumours (T) of the group of animals administered with the test compound to the corresponding volume of tumours (C) of the untreated animals.
(2) Determination of ED50 :
The term ED50 denotes the administered amount needed for reducing the volume of Sarcoma 180 solid tumours in the animals to 50% on the basis of the corresponding volume of Sarcoma 180 solid tumours in control (untreated) animals.
On graph paper, T/C was indicated by an arithmetic scale on the longitudinal axis and the administered amount of test compound was indicated by a logarithmic scale on the lateral axis.

[10] = test system: Escherichia coli ATCC 26; assay: Minimum inhibitory concentration, agar dilution method, EC; format: cell-based
Source text: as §1
EC: Escherichia coli ATCC 26

[11] = Staphylococcus aureus, pH 7, read-out: minimum inhibitory concentration, SA
[12] = Proteus vulgaris, ATCC6897, pH 7, read-out: minimum inhibitory concentration, PV
[13] = ATCC10541, pH 7, read-out: minimum inhibitory concentration, SF

Structure (SMILES)	MIC [1, 11] [µg/mL]	LD50 at 336 h [2] [mg/kg]	selectivity ratio [2]	MIC [3] [µg/mL]	MIC [4, 12] [µg/mL]	selectivity ratio [5]	MIC [6, 13] [µg/mL]	ED50 [9] [mg/kg]	other results
CC1=C(NCCSSCCNC(=O)CC[C@H](N)C(=O)O)C(=O)C2=C(C1=O)N1C[C@H]3[C@H](N3C)[C@]1(O)[C@H]2COC(N)=O (stereo partly drawn) [Compound 2, 7-N-[2-[[2-(N^5 -L-glutamino)ethyl]dithio]ethyl]mitomycin D]	50 (≈ 83.5 µM)	90	1.55	> 100	25 (≈ 41.8 µM)	2.14	100 (≈ 167 µM)	18	ILS* (ratio of ILS % to that of mitomycin C) ([7]; dose 50 mg/kg): > 1.34; solubility [8]: > 5 mg/mL
CO[C@@]12[C@H](COC(N)=O)C3=C(C(=O)C(C)=C(NCCSSCCCCNC(=O)CC[C@H](N)C(=O)O)C3=O)N1C[C@@H]1N[C@@H]12 [Compound 5, 7-N-[2-[[4-(N^5 -L-glutamino)butyl]dithio]ethyl]mitomycin C]	1.6 (≈ 2.55 µM)	30	1.66	0.8 (≈ 1.28 µM)	1.6 (≈ 2.55 µM)	3.21	1.6 (≈ 2.55 µM)	8.4	solubility [8]: > 20 mg/mL
CO[C@@]12[C@H](COC(N)=O)C3=C(C(=O)C(C)=C(NCCSSCCNC(=O)[C@@H](N)CCC(=O)O)C3=O)N1C[C@@H]1N[C@@H]12 [Compound 9, 7-N-[2-[[2-(N^2 -L-glutamino)ethyl]dithio]ethyl]mitomycin C]	–	–	–	–	–	–	–	7.7	solubility [8]: > 20 mg/mL
CO[C@@]12[C@H](COC(N)=O)C3=C(C(=O)C(C)=C(NCCSSCCNC(=O)c4cc(=O)[nH]c(=O)[nH]4)C3=O)N1C[C@@H]1N[C@@H]12 [Compound 14, 7-N-[2-[(2-orotamidoethyl)dithio]ethyl]mitomycin C]	–	45	1.68	–	–	1.2	–	11.5	ILS* (ratio of ILS % to that of mitomycin C) ([7]; dose 20.3 mg/kg): > 2.60
CO[C@@]12[C@H](COC(N)=O)C3=C(C(=O)C(C)=C(NCCSSCCNC(=O)/C=C(C)/C=C/C=C(C)/C=C/C4=C(C)CCCC4(C)C)C3=O)N1C[C@@H]1N[C@@H]12 [Compound 15]	0.078 (≈ 0.104 µM)	16.9	0.82	2.5 (≈ 3.32 µM)	1.3 (≈ 1.73 µM)	3	0.63 (≈ 0.838 µM)	7.4	–
CC(=O)NCCSSCCNC1=C(C)C(=O)C2=C(C1=O)[C@H](COC(N)=O)[C@@]1(O)[C@@H]3[C@H](CN21)N3C (stereo partly drawn) [Compound 17, 7-N-[2-[(2-acetamidoethyl)dithio]ethyl]mitomycin D]	> 50	60	2.73	–	> 50	2.6	25 (≈ 48.9 µM)	7.3	ILS* (ratio of ILS % to that of mitomycin C) ([7]; dose 25 mg/kg): > 1.78
CO[C@@]12[C@H](COC(N)=O)C3=C(C(=O)C(C)=C(NCCSSCCC(N)=O)C3=O)N1C[C@@H]1N[C@@H]12 [Compound 21, 7-N-[2-[(2-carbamoylethyl)dithio]ethyl]mitomycin C]	0.63 (≈ 1.27 µM)	18.8	0.68	1.3 (≈ 2.61 µM)	5 (≈ 10 µM)	1.01	1.3 (≈ 2.61 µM)	11.8	–
CO[C@@]12[C@H](COC(N)=O)C3=C(C(=O)C(C)=C(NCCSSCCC(=O)NC[C@H](O)c4ccc(O)c(O)c4)C3=O)N1C[C@@H]1N[C@@H]12 [Compound 32]	–	30	1.56	–	–	2.39	–	7.1	ILS* (ratio of ILS % to that of mitomycin C) ([7]; dose 3.13 mg/kg): > 1.44
CO[C@@]12[C@H](COC(N)=O)C3=C(C(=O)C(C)=C(NCCSSCCSC(C)=O)C3=O)N1C[C@@H]1N[C@@H]12 [Compound 33, 7-N-[2-[[2-(acetylthio)ethyl]dithio]ethyl]mitomycin C]	0.078 (≈ 0.148 µM)	4.7	0.36	0.63 (≈ 1.19 µM)	0.63 (≈ 1.19 µM)	1.27	0.039 (≈ 0.0738 µM)	5.6	MIC ([10]; Escherichia coli, ATCC26, pH 7, read-out: minimum inhibitory concentration, EC): > 40 µg/mL
CO[C@@]12[C@H](COC(N)=O)C3=C(C(=O)C(C)=C(NCCSSCCOC(=O)/C=C(C)/C=C/C=C(C)/C=C/C4=C(C)CCCC4(C)C)C3=O)N1C[C@@H]1N[C@@H]12 [Compound 35, 7-N-[2-[[2-(retinoyloxy)ethyl]dithio]ethyl]mitomycin C]	5 (≈ 6.64 µM)	–	–	–	–	–	10 (≈ 13.3 µM)	–	–
CO[C@@]12[C@H](COC(N)=O)C3=C(C(=O)C(C)=C(NCCSSCc4cn([C@H]5C[C@H](O)[C@@H](CO)O5)c(=O)[nH]c4=O)C3=O)N1C[C@@H]1N[C@@H]12 [Compound 39, 7-N-[2-[[(2'-deoxyuridin-5-yl)methyl]dithio]ethyl]mitomycin C]	–	75	1.37	–	–	1.5	–	34.7	ILS* (ratio of ILS % to that of mitomycin C) ([7]; dose 50 mg/kg): 1.83
CO[C@@]12[C@H](COC(N)=O)C3=C(C(=O)C(C)=C(N)C3=O)N1C[C@@H]1N[C@@H]12 [MM-C, mitomycin C, reference compound]	–	–	–	–	–	–	–	–	MIC ([1]; agar dilution method, pH 7.0, Staphylococcus aureus, read-out: minimum inhibitory concentration, SA): 0.04 µg/mL (≈ 0.12 µM); MIC ([10]; ATCC26, agar dilution method, pH 7.0, Escherichia coli, read-out: minimum inhibitory concentration, EC): 10 µg/mL (≈ 29.9 µM); MIC ([4]; ATCC6897, agar dilution method, pH 7.0, Proteus vulgaris, read-out: minimum inhibitory concentration, PV): 0.02 µg/mL (≈ 0.0598 µM); MIC ([6]; ATCC10541, agar dilution method, pH 7.0, Streptococcus faecalis, read-out: minimum inhibitory concentration, SF): 0.08 µg/mL (≈ 0.239 µM)
